Results on 7 compounds are retold here after US4593047A, “Process for the preparation of 3-trifluoromethyl-and 2,5-dimethyl-4'-hdyroxy-α-ethyl-benzhydrol, and pharmaceutical compositions containing them” (Richter Gedeon Vegyeszeti Cyar RT, priority 1982, dated 1986).

For data set [1] the following is noted: cited from earlier work.
The subject of the next data set is enzyme system of liver. The conditions noted are these: cited from earlier work.
Data set [2] can be described thus: Ethanolic narcosis period test (Table 1, 1 hour oral pretreatment). The format is in vivo, Hann.-Wistar rats. The settings on record: 1 hour before ethanol i.p., n=10, control = 100 ± 7.9. Here is the method:
(§1) The effect of the compounds according to the invention on ethanolic narcosis period was tested on Hann.-Wistar rats of both sexes, each weighing 160 to 180 g. The animals were fasted for 16 hours prior to treatment and tests were performed on groups of 10. The animals were treated with various doses of the test compounds orally. One hour after treatment the rats were administered a […]. dose of ethanol intraperitoneally, and their narcosis period was measured from the elapse of the righting reflex until a spontaneous correction of the body position. The mean value of the narcosis period and the percentage difference related to the control were calculated. The results are given in Table 1. x±S.E.=mean value±standard error n=number of animals The control group was treated with placebo and a 3.5 mg./kg. dose of ethanol. Narcosis period of the control: 87.4±6.91 (x±S.E.) min.

The conditions of data set [3]: in vivo; cited from earlier work.
The conditions of data set [4]: in vivo; cited from earlier work. This is another data set of the same source.
Data set [5] in a line: Ethanolic narcosis period as a function of the pretreatment period (Table 2). The format is in vivo, Hann.-Wistar rats. The conditions noted are these: 40.0 mg./kg. oral, n=10. Here is the method:
as §1, with “calculated.” for “calculated. The results are given in Table 1. x±S.E.=mean value±standard error n=number of animals The control group was treated with placebo and a 3.5 mg./kg. dose of ethanol. Narcosis period of the control: 87.4±6.91 (x±S.E.) min.”
There was examined the effect of a 40.0 mg./kg. dose of the above test compound on the ethanolic narcosis period as a function of the pretreatment-period, following the test procedure described above.

Data set [6] in a line: Acute toxicity, single oral dose, 14 days observation. The format is in vivo. As for the experimental part: The acute toxicity of the compound A was determined on Hann.-Wistar rats of both sexes, each weighing 160 to 180 g. in groups of 10. The animals were administered a single 2000 mg./kg. oral dose of the test compound, and then observed for 14 days.

Consider `CC(N)(Cc1ccc(O)cc1)C(=O)O` (stereo not drawn) [α-Methyl-p-tyrosine], for which the “Effect on locomotoric hyperactivity” value in data set [1] (mice, dose range in which spontaneous locomotor activity is decreased) is “normalizing effect”. For the same compound, the Spontaneous locomotor activity result in data set [1] (same dose range as normalizing effect on hyperactivity) is recorded as “decreases the spontaneous locomotor activity”.

As to `CCC(O)(c1ccccc1)c1cc(C)ccc1C` (stereo not drawn) [2,5-dimethyl-α-ethyl-benzhydrol], the “Inducing effect on the enzyme system of liver” value in the data set with enzyme system of liver is “shows a similar activity”.

Regarding `CCC(O)(c1ccccc1)c1cccc(C(F)(F)F)c1` (stereo not drawn) [3-trifluoromethyl-α-ethyl-benzhydrol], in the data set with enzyme system of liver, the “Inducing effect on the enzyme system of liver” value is reported as “has an inducing effect on the enzyme system of liver”.

As for `N[C@@H](CS)C(=O)O` [L-cysteine, reference compound], in data set [2] (500.0 mg./kg. oral), the “Ethanolic narcosis period (Control ± S.E. %)” value is recorded as 63 ± 4.2%. In addition, the “Ethanolic narcosis period (Control ± S.E. %)” value in data set [2] (1000.0 mg./kg. oral) stood at 66 ± 5.9%. For the same compound, in data set [3], the Alcoholic intoxication entry is “shortened” and the Alcoholic narcosis entry is “shortened”.

Consider `Cn1c(=O)c2c(ncn2C)n(C)c1=O` [caffeine], for which, in data set [4], the “Motoric incoordination (ataxia)” value was “prolong the motoric incoordination (ataxia)” and the “Narcotizing effect of alcohol” value is “decrease the narcotizing effect of alcohol”.

Consider `CC(N)Cc1ccccc1` (stereo not shown) [amphetamine], for which, in data set [4], the “Motoric incoordination (ataxia)” value is recorded as “prolong the motoric incoordination (ataxia)” and the “Narcotizing effect of alcohol” value is reported as “decrease the narcotizing effect of alcohol”.

In the case of `CCC(O)(c1ccc(O)cc1)c1cccc(C(F)(F)F)c1` (stereo not drawn) [A, 3-trifluoromethyl-4'-hydroxy-α-ethyl-benzhydrol], the “Ethanolic narcosis period (Control ± S.E. %)” value was determined as 53 ± 5.8% in data set [2] (40.0 mg./kg. oral) and 62 ± 5.1% in data set [2] (80.0 mg./kg. oral). Further, the “Narcosis period, treated” value in data set [5] (pretreatment 0.5 hours, control 87.2 ± 6.23) is 54.1 ± 3.49; in data set [5] (pretreatment 1.0 hours, control 85.1 ± 4.91), 45.1 ± 2.30; in data set [5] (pretreatment 2.0 hours, control 85.5 ± 9.97) it was 29.9 ± 5.08; in data set [5] (pretreatment 3.0 hours, control 83.4 ± 8.46) it was 75.1 ± 4.51. Further, the “Narcosis period, % difference from the control” value was -38% in data set [5] (pretreatment 0.5 hours), -47% in data set [5] (pretreatment 1.0 hours), -65% in data set [5] (pretreatment 2.0 hours) and -10% in data set [5] (pretreatment 3.0 hours). Also, in data set [6] (oral, single dose), the Toxicity result is recorded as “toxicity is low”. The compound also displayed an LD50 at 336 h in data set [6] (rat, in vivo, oral, single dose, 14 days observation) of over 2000 mg/kg. The mortality at 336 h in data set [6] (rat, in vivo, single 2000 mg./kg. oral dose, 14 days observation, read-out: Animals perished) was determined as 40%.
